The values below come from ChEMBL document CHEMBL5532720, “A Potent Solution for Tumor Growth and Angiogenesis Suppression via an ELR+CXCL-CXCR1/2 Pathway Inhibitor” (ACS Med Chem Lett, 2024).

The IC50 is the concentration that gives 50% inhibition. A high value points to lower potency. The inhibition is the drop in the measured response relative to a control, in per cent. The low end stands for little suppression, the high end for strong suppression.

Test [1] concerns A498. Put plainly: Antiproliferative activity against human A498 cells incubated for 48 hrs by XTT assay. The note with it: A498, 48 h. It counts as functional, cell-based. Background: Tetrazolium assays rely on reduction of a dye to a coloured formazan, in cell work by metabolically active cells.
For test [2], the system named is RCC4. Put plainly: Antiproliferative activity against human RCC4 cells incubated for 48 hrs by XTT assay. Conditions: RCC4, 48 h. It counts as functional, cell-based.
Test [3] relates to 786-0. Put plainly: Antiproliferative activity against human 786-0 cells incubated for 48 hrs by XTT assay. The note with it: 786-0, 48 h. It counts as functional, cell-based.
Test [4] is described as follows: Antiproliferative activity against human Cisplatin and radiotherapy resistant CAL27RR cells incubated for 48 hrs by XTT assay. The class given is functional, cell-based.
For test [5], the system named is CAL-27. Put plainly: Antiproliferative activity against human CAL-27 cells incubated for 48 hrs by XTT assay. The class given is functional, cell-based. Conditions: CAL-27, 48 h.
Test [6] is described as follows: Antiproliferative activity against human Sunitinib-resistant 786-R cells incubated for 48 hrs by XTT assay. It counts as functional, cell-based.
The test system of test [7] is CAL-33. Put plainly: Antiproliferative activity against human CAL-33 cells incubated for 48 hrs by XTT assay. The note with it: CAL-33, 48 h. The class given is functional, cell-based.
Test [8] in a line: Antiproliferative activity against human Cisplatin and radiotherapy resistant CAL33RR cells incubated for 48 hrs by XTT assay. It counts as functional, cell-based.
For test [9], the system named is A498. Put plainly: Inhibition of CXCL8-induced cell migration in human A498 cells at 0.5 uM incubated for 24 hrs by crystal violet staining based analysis relative to control. The class given is functional.
Test [10] has as its system A498. Nature of the test: Inhibition of cell invasion in human A498 cells cultured as 3D spheroids at 5 uM measured after 7 days by light microscopic imaging analysis relative to control. It counts as functional. The note with it: A498, 168 h, time 7 day.

As to `O=C(Nc1cccc(Cl)c1)Nc1nc2ccc([N+](=O)[O-])cc2o1`, the IC50 in [1] is 22 µM; in test [2], 25 µM; in test [3] it was 20 µM; in [4], greater than 25 µM; in test [5], greater than 25 µM; in test [6] it was greater than 25 µM. Besides, the values for the half-inhibitory concentration (IC50) in test [7] and in [8] were greater than 25 µM and 12 µM, respectively.

With `O=C(Nc1cccc(Cl)c1)Nc1nc2ccc(-c3ccoc3)cc2s1`, the IC50 in [1], in test [2], in [3], in [4], in test [5] and in [6] was greater than 10 µM each time. For the same molecule, the concentration for half-maximal inhibition (IC50) in [7] and in [8] was greater than 10 µM in each case.

Consider `O=C(Nc1cccc(Cl)c1)Nc1nc2cc([N+](=O)[O-])ccc2[nH]1`, for which the half-inhibitory concentration (IC50) in test [1] was 8 µM; in [2], 3 µM; in test [3] it was 4 µM; in test [4], 10 µM; in test [5], 25 µM; in test [6], 4 µM. Besides, the IC50 in test [7] came out at 15 µM; in [8], 25 µM.

On to `O=C(Nc1nc2ccc([N+](=O)[O-])cc2s1)Nc1ccccc1Cl`, for which the IC50 in [1] was found to be 6 µM; in test [2], 9 µM; in test [3], 7 µM; in test [4] it was 7 µM; in test [5], 8 µM; in [6], 10 µM. Moreover, the IC50 in test [7] is 8 µM; in test [8], 7 µM.

Turning to `O=C(Nc1ccccc1)Nc1nc2cc([N+](=O)[O-])ccc2[nH]1`, the IC50 in [1] is 25 µM; in [2], greater than 25 µM; in test [3], 25 µM; in test [4], 15 µM; in [5], greater than 25 µM; in [6], greater than 25 µM. The half-inhibitory concentration (IC50) in test [7] was 20 µM; in test [8] it was greater than 25 µM.

In the case of `O=C(Nc1cccc(Cl)c1)Nc1nc2cc([N+](=O)[O-])ccc2o1`, the IC50 was 25 µM in test [1]; 25 µM in test [2]; 25 µM in [3]; greater than 25 µM in [4]; greater than 25 µM in test [5]; greater than 25 µM in [6]. The IC50 in [7] and in [8] was greater than 25 µM in each case.

`O=C(Nc1cccc(Cl)c1)Nc1nc2ccc(-c3ccsc3)cc2s1`: the IC50 in [1], in test [2], in test [3], in test [4], in [5] and in test [6] was greater than 25 µM each time. Also, the IC50 in test [7] and in test [8] was greater than 25 µM each time.

As to `Cc1ccccc1NC(=O)Nc1nc2ccc([N+](=O)[O-])cc2s1`, the concentration for half-maximal inhibition (IC50) in test [1] is 6 µM; in [2] it was 10 µM; in [3] it was 8 µM; in test [4] it was 4 µM; in test [5] it was 4 µM; in test [6] it was 6 µM. The IC50 in test [7] and in [8] was 4 µM each time.

`O=C(Nc1cccc(Cl)c1)Nc1nc2ccc(-c3cccs3)cc2s1`: the IC50 in [1], in test [2], in [3], in test [4], in [5] and in test [6] was greater than 25 µM in each case. Besides, the 50% inhibitory concentration (IC50) in [7] and in [8] was greater than 25 µM throughout.

As for `CS(=O)(=O)Nc1ccc2nc(NC(=O)Nc3cccc(Cl)c3)sc2c1`, the half-maximal inhibitory concentration (IC50) in test [1], in test [2], in [3], in test [4], in [5] and in [6] was greater than 25 µM each time. Besides, the half-inhibitory concentration (IC50) in test [7] and in [8] was greater than 25 µM in each case.

Consider `CC(=O)Nc1ccc2nc(NC(=O)Nc3cccc(Cl)c3)sc2c1`, for which the half-inhibitory concentration (IC50) in test [1] was 25 µM; in test [2], greater than 25 µM; in test [3] it was greater than 25 µM; in test [4] it was 7 µM; in test [5], greater than 25 µM; in test [6], 25 µM. The IC50 is 20 µM in test [7] and greater than 25 µM in test [8].

`Nc1ccc2nc(NC(=O)Nc3cccc(Cl)c3)sc2c1`: the IC50 in test [1] is 20 µM; in [2], 20 µM; in test [3], 20 µM; in [4] it was 20 µM; in test [5], greater than 25 µM; in test [6] it was greater than 25 µM. The 50% inhibitory concentration (IC50) in test [7] and in test [8] was greater than 25 µM in each case.

In the case of `O=C(Nc1cccc(Cl)c1)Nc1nc2ccc(Br)cc2s1`, the half-maximal inhibitory concentration (IC50) in [1], in test [2], in test [3], in test [4], in test [5] and in test [6] was greater than 25 µM throughout. Also, the half-maximal inhibitory concentration (IC50) in test [7] and in [8] was greater than 25 µM each time.

As to `O=C(Nc1cccc(Cl)c1)Nc1nc2ccc([N+](=O)[O-])cc2s1`, the concentration for half-maximal inhibition (IC50) is 5 µM in test [2]; 2 µM in [4]; 3 µM in [5]; 2.5 µM in test [6]; 2 µM in test [7]; 3 µM in [8]. Further, the inhibition at 0.5 µM in [9] was greater than 50%. For the same molecule, in test [10], the inhibition at 5 µM was greater than 75%.

Regarding `COc1ccc(NC(=O)Nc2nc3ccc([N+](=O)[O-])cc3s2)cc1`, the IC50 is 20 µM in [1]; 20 µM in [2]; 25 µM in test [3]; greater than 25 µM in test [4]; greater than 25 µM in test [5]; 25 µM in test [6]. The IC50 in [7] and in [8] was greater than 25 µM throughout.

Regarding `O=C(Nc1cccc(Cl)c1)Nc1nc2ccc(-c3ccccn3)cc2s1`, the IC50 in test [1] was 12 µM; in test [2], 25 µM; in test [3], 15 µM; in test [4], greater than 25 µM; in test [5], greater than 25 µM; in [6] it was 8 µM. In addition, the half-maximal inhibitory concentration (IC50) in test [7] and in test [8] was greater than 25 µM each time.

In the case of `O=C(Nc1cccc(Cl)c1)Nc1nc2ccc(-c3ccco3)cc2s1`, the IC50 in [1], in test [2], in test [3], in [4], in [5] and in [6] was greater than 25 µM throughout. Further, the IC50 in [7] and in [8] was greater than 25 µM throughout.

Consider `Cc1ccc(NC(=O)Nc2nc3ccc([N+](=O)[O-])cc3o2)cc1`, for which the IC50 is 9 µM in [1]; 2 µM in [2]; 4 µM in test [3]; 20 µM in test [4]; 25 µM in [5]; 25 µM in test [6]. The 50% inhibitory concentration (IC50) in [7] came out at 15 µM; in test [8] it was 20 µM.

Regarding `Cc1ccc(NC(=O)Nc2nc3ccc([N+](=O)[O-])cc3s2)cc1`, the half-maximal inhibitory concentration (IC50) in test [1] came out at 15 µM; in [2], 10 µM; in [3], 5 µM; in test [4], 4 µM; in test [5] it was 7 µM; in test [6] it was 5 µM. Besides, the 50% inhibitory concentration (IC50) in [7] and in [8] was 7 µM each time.

As to `CCOc1ccc2nc(NC(=O)Nc3cc(Cl)cc(Cl)c3)sc2c1`, the IC50 in test [1] is greater than 25 µM; in [2], greater than 25 µM; in test [3], greater than 25 µM; in [4], 20 µM; in [5], greater than 25 µM; in [6], greater than 25 µM. For the same molecule, the half-inhibitory concentration (IC50) in [7] is 15 µM; in [8] it was greater than 25 µM.

As to `O=C(Nc1ccccc1)Nc1nc2ccc([N+](=O)[O-])cc2s1`, the concentration for half-maximal inhibition (IC50) in test [1] was 3 µM; in test [2] it was 5 µM; in [3] it was 5 µM; in test [4], 4 µM; in [5], 25 µM; in [6] it was 5 µM. The half-inhibitory concentration (IC50) was 6 µM in test [7] and 25 µM in test [8].

For the molecule `Cc1ccc(-c2ccc3nc(NC(=O)Nc4cccc(Cl)c4)sc3c2)s1`, the IC50 in test [2], in [3], in [4], in test [5], in test [6] and in [7] was greater than 10 µM throughout. The molecule also yielded an IC50 in test [8] greater than 10 µM.

Turning to `CCOc1ccc2nc(NC(=O)Nc3cccc(Cl)c3)sc2c1`, the IC50 was greater than 25 µM in test [1]; greater than 25 µM in [2]; greater than 25 µM in test [3]; 20 µM in [4]; greater than 25 µM in test [5]; greater than 25 µM in [6]. Moreover, the IC50 in test [7] was 4 µM; in test [8] it was greater than 25 µM.

As to `Cn1cc(-c2ccc3nc(NC(=O)Nc4cccc(Cl)c4)sc3c2)cn1`, the IC50 was greater than 10 µM in [1]; greater than 10 µM in [2]; greater than 10 µM in test [3]; greater than 10 µM in test [4]; 7 µM in test [5]; greater than 10 µM in [6]. Further, the IC50 in test [7] and in test [8] was greater than 10 µM each time.

For `O=C(Nc1ccccc1)Nc1nc2cc([N+](=O)[O-])ccc2o1`, the half-inhibitory concentration (IC50) in [1], in [2], in test [3], in test [4], in [5] and in test [6] was greater than 25 µM each time. Moreover, the IC50 in test [7] and in test [8] was greater than 25 µM each time.

As for `O=C(Nc1nc2ccc([N+](=O)[O-])cc2s1)Nc1ccccc1Br`, the IC50 in test [1] is 20 µM; in test [2] it was 25 µM; in [3], 15 µM; in test [4], 25 µM; in test [5] it was greater than 25 µM; in test [6], 14 µM. Moreover, the IC50 in [7] was 8 µM; in test [8], greater than 25 µM.
